This passage reports IC50 results from US10703756B2, “Pyrrolo[2,3-D]pyrimidinyl, pyrrolo[2,3-B]pyrazinyl, pyrrolo[2,3-B]pyridinyl acrylamides and epoxides thereof” (Pfizer Inc., priority 2015, dated 2020).

The term IC50 denotes the concentration at which inhibition is half-maximal. A higher IC50 goes with a need for much substance.

The structures appear in SMILES notation.

Test [1] concerns the target T1, JAK3 enzyme (Homo sapiens, UniProt P52333).
T1 sequence (P52333 1-1124): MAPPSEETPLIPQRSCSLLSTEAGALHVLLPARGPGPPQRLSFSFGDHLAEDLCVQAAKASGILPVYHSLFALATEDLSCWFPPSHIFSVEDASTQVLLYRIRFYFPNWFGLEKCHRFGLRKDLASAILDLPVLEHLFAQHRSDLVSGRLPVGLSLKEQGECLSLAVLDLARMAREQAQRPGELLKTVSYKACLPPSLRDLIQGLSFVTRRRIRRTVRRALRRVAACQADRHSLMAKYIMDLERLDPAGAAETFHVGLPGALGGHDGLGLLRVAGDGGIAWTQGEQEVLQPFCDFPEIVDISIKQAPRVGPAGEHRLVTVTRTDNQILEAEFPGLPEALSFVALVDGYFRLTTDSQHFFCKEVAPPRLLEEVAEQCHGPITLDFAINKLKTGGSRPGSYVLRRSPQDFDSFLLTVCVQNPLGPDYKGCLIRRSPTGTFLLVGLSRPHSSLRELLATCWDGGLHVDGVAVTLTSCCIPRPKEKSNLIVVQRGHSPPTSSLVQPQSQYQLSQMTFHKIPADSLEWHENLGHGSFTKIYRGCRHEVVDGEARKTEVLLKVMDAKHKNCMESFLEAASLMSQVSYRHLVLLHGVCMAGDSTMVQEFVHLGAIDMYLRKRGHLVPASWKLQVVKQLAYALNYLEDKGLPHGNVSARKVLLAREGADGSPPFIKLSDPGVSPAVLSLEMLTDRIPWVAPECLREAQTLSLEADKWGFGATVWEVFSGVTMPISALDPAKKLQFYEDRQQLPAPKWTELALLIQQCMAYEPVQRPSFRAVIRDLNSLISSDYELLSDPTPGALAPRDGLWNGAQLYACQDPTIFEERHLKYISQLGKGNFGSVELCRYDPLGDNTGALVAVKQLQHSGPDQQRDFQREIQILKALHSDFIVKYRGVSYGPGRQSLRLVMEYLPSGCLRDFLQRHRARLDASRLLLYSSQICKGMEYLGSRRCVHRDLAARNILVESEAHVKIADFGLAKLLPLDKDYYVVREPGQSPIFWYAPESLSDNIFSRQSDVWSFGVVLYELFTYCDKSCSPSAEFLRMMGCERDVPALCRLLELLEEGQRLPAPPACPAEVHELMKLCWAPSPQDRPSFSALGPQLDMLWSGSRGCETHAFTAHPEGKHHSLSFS
The experiment in a line: JAK Caliper Enzyme Assay at 4 μM ATP. Format: biochemical. As to the method: (§1) Test article was solubilized in dimethyl sulfoxide (DMSO) to a stock concentration of 30 mM. An 11-point half log dilution series was created in DMSO with a top concentration of 600 μM. […] Test article and assay controls were added to a 384-well plate. […] Enzyme concentrations and incubation times were optimized for each new enzyme preps and were modified slightly over time to ensure 20%-30% phosphorylation. […] The assay plates were placed on a Caliper Life Science Lab Chip 3000 (LC3000) instrument, and each well was sampled using appropriate separation conditions to measure the unphosphorylated and phosphorylated peptide.

Test [2] concerns the target T1, JAK3 enzyme. Put plainly: JAK Caliper Enzyme Assay at 1 mM ATP. The test is classed as biochemical. The procedure:
as §1

For the compound `C=CC(=O)N1CCC(Oc2cnc3[nH]cc(C(=O)NCC4(O)CC[C@@H](C)C4)c3n2)CC1` (mixture of isomers) [Example 226], the IC50 in test [1] is 2.12 nM; in test [2], 430 nM.
The corresponding values for `C=CC(=O)N1CCN(c2cnc3[nH]cc(C(=O)N[C@@H]4C[C@H]4C(F)(F)F)c3n2)C[C@@H]1CC(C)C` [Example 303, 2-[(3S)-4-acryloyl-3-(2-methylpropyl)piperazin-1-yl]-N-[(1R,2R)-2-(trifluoromethyl)cyclopropyl]-5H-pyrrolo[2,3-b]pyrazine-7-carboxamide] are 4.81 nM and 731 nM.
The corresponding values for `C=CC(=O)N1CC[C@@H](OC)[C@@H](Nc2cnc3[nH]cc(C(=O)N[C@H](C)COC)c3n2)C1` (single isomer, unassigned) [Example 5] are 0.408 nM and 46 nM.
Taken in the same sequence, the figures for `C=CC(=O)N1CCC(Oc2cnc3[nH]cc(C(=O)NCC(C)(C)C)c3n2)CC1` [Example 221, 2-[(1-acryloylpiperidin-4-yl)oxy]-N-(2,2-dimethylpropyl)-5H-pyrrolo[2,3-b]pyrazine-7-carboxamide] were 4.4 nM and 713 nM.
Turning to `C=CC(=O)N1CCN(c2cnc3[nH]cc(C(=O)NC(C)(C)COC)c3n2)CC1(C)C` [Example 151, 2-(4-acryloyl-3,3-dimethylpiperazin-1-yl)-N-(1-methoxy-2-methylpropan-2-yl)-5H-pyrrolo[2,3-b]pyrazine-7-carboxamide], the half-inhibitory concentration (IC50) in test [1] came to 13.6 nM; in test [2], 1520 nM.
Taken in the same sequence, the figures for `C=CC(=O)N1CC[C@@H](Nc2cnc3[nH]cc(C(=O)NCCC(F)(F)F)c3n2)C[C@H]1C` (single isomer, unassigned) [Example 23] were 3.58 nM and 651 nM.
Taken in the same sequence, the figures for `C=CC(=O)N1CCC(Nc2cnc3[nH]cc(C(=O)NCC(C)(C)C)c3n2)CC1C` (racemic) [Example 267, Racemic-2-[(1-acryloyl-2-methylpiperidin-4-yl)amino]-N-(2,2-dimethylpropyl)-5H-pyrrolo[2,3-b]pyrazine-7-carboxamide] were 4.99 nM and 802 nM.
Taken in the same sequence, the figures for `C=CC(=O)N1CCCC(Nc2cnc3[nH]cc(C(=O)NCC)c3n2)C1` (single isomer, unassigned) [Example 35] were 6.77 nM and 621 nM.
Regarding `C=CC(=O)N1CCC(Oc2cnc3[nH]cc(C(=O)NCC4(O)CCC(F)(F)CC4)c3n2)CC1` [Example 207, 2-[(1-acryloylpiperidin-4-yl)oxy]-N-[(4,4-difluoro-1-hydroxycyclohexyl)methyl]-5H-pyrrolo[2,3-b]pyrazine-7-carboxamide], the values for the concentration for half-maximal inhibition (IC50) in test [1] and in test [2] were 4.07 nM and 538 nM, respectively.
Taken in the same sequence, the figures for `C=CC(=O)N1CCN(c2cnc3[nH]cc(C(=O)NC4COCc5ccccc54)c3n2)CC1(C)C` (racemic) [Example 144, Racemic-2-(4-acryloyl-3,3-dimethylpiperazin-1-yl)-N-(3,4-dihydro-1H-isochromen-4-yl)-5H-pyrrolo[2,3-b]pyrazine-7-carboxamide] were 3.32 nM and 430 nM.
Taken in the same sequence, the figures for `C=CC(=O)N1C[C@H](Nc2cnc3[nH]cc(C(=O)NCCOC)c3n2)C[C@H]1COCC` [Example 233, 2-{[(3R,5S)-1-acryloyl-5-(ethoxymethyl)pyrrolidin-3-yl]amino}-N-(2-methoxyethyl)-5H-pyrrolo[2,3-b]pyrazine-7-carboxamide] were 6.79 nM and 1100 nM.
The corresponding values for `C=CC(=O)N1C[C@H](C2CC2)[C@H](Nc2cnc3[nH]cc(C(=O)NCC)c3n2)C1` [Example 238, 2-{[(3S,4S)-1-acryloyl-4-cyclopropylpyrrolidin-3-yl]amino}-N-ethyl-5H-pyrrolo[2,3-b]pyrazine-7-carboxamide] are 9.48 nM and 1360 nM.
Consider `C=CC(=O)N1CCN(c2cnc3[nH]cc(C(=O)NCCCC(F)(F)F)c3n2)CC1(C)C` [Example 272, 2-(4-acryloyl-3,3-dimethylpiperazin-1-yl)-N-(4,4,4-trifluorobutyl)-5H-pyrrolo[2,3-b]pyrazine-7-carboxamide], for which the concentration for half-maximal inhibition (IC50) was 3.82 nM in test [1] and 651 nM in test [2].
The corresponding values for `C=CC(=O)N1CCN(c2cnc3[nH]cc(C(=O)N[C@@H](COC)c4ccccc4)c3n2)CC1(C)C` [Example 138, 2-(4-acryloyl-3,3-dimethylpiperazin-1-yl)-N-[(1R)-2-methoxy-1-phenylethyl]-5H-pyrrolo[2,3-b]pyrazine-7-carboxamide] are 46.7 nM and 4840 nM.
The corresponding values for `C=CC(=O)N1CCC(Oc2cnc3[nH]cc(-c4ncn(C)n4)c3n2)CC1` [Example 126, 1-(4-{[7-(1-Methyl-1H-1,2,4-triazol-3-yl)-5H-pyrrolo[2,3-b]pyrazin-2-yl]oxy}piperidin-1-yl)prop-2-en-1-one] are 14.9 nM and 3530 nM.
The corresponding values for `C=CC(=O)N1CC[C@@H](Nc2cnc3[nH]cc(C(=O)NCC)c3n2)C1` [Example 234, 2-{[(3R)-1-acryloylpyrrolidin-3-yl]amino}-N-ethyl-5H-pyrrolo[2,3-b]pyrazine-7-carboxamide] are 17.9 nM and 2270 nM.
With `C=CC(=O)N1CCN(c2cnc3[nH]cc(C(=O)N[C@H](C)COC)c3n2)CC1(C)COC` (stereo partly drawn) [Example 63, 2-(4-acryloyl-3-(methoxymethyl)-3-methylpiperazin-1-yl)-N-((R)-1-methoxypropan-2-yl)-5H-pyrrolo[2,3-b]pyrazine-7-carboxamide], the IC50 came out at 2.44 nM in test [1] and 379 nM in test [2].
For the compound `C=CC(=O)N1CC[C@@H](Oc2cnc3[nH]cc(C(=O)N[C@@H](C)COC)c3n2)C1` [Example 53, 2-{[(3R)-1-acryloylpyrrolidin-3-yl]oxy}-N-[(2S)-1-methoxypropan-2-yl]-5H-pyrrolo[2,3-b]pyrazine-7-carboxamide], the IC50 stood at 31.2 nM in test [1] and 4000 nM in test [2].
Taken in the same sequence, the figures for `C=CC(=O)N1CCN(c2cnc3[nH]cc(C(=O)N[C@@H]4COC[C@@H]4CC(C)C)c3n2)CC1(C)C` [Example 142, 2-(4-acryloyl-3,3-dimethylpiperazin-1-yl)-N-[(3S,4R)-4-(2-methylpropyl)tetrahydrofuran-3-yl]-5H-pyrrolo[2,3-b]pyrazine-7-carboxamide] were 60.4 nM and 4430 nM.
`C=CC(=O)N1CCC(Nc2cnc3[nH]cc(C(=O)N[C@@H]4C[C@H]4C(F)(F)F)c3n2)CC1C` (mixture of isomers) [Example 337, Racemic-2-[(1-acryloyl-2-methylpiperidin-4-yl)amino]-N-[(1R,2R)-2-(trifluoromethyl)cyclopropyl]-5H-pyrrolo[2,3-b]pyrazine-7-carboxamide]: the IC50 in test [1] came out at 14.4 nM; in test [2] it was 1840 nM.
Turning to `C=CC(=O)N1CCN(c2cnc3[nH]cc(C(=O)N[C@H](C)COCc4ccccc4)c3n2)CC1(C)C` [Example 169, 2-(4-acryloyl-3,3-dimethylpiperazin-1-yl)-N-[(2R)-1-(benzyloxy)propan-2-yl]-5H-pyrrolo[2,3-b]pyrazine-7-carboxamide], the IC50 in test [1] came to 7.31 nM; in test [2], 845 nM.
Taken in the same sequence, the figures for `C=CC(=O)N1C[C@H](Nc2cnc3[nH]cc(C(=O)NCC)c3n2)[C@H](C2CC2)C1` [Example 261, 2-{[(3R,4R)-1-acryloyl-4-cyclopropylpyrrolidin-3-yl]amino}-N-ethyl-5H-pyrrolo[2,3-b]pyrazine-7-carboxamide] were 259 nM and > 10000 nM.
Taken in the same sequence, the figures for `C=CC(=O)N1CCC(Oc2cnc3[nH]cc(C(=O)NCc4ccccc4F)c3c2)CC1` [Example 346, 5-[(1-acryloylpiperidin-4-yl)oxy]-N-(2-fluorobenzyl)-1H-pyrrolo[2,3-b]pyridine-3-carboxamide] were 40.9 nM and 4440 nM.
Taken in the same sequence, the figures for `C=CC(=O)N1CCC(Oc2cnc3[nH]cc(C(=O)NC[C@@]4(O)CCCC[C@H]4F)c3n2)CC1` [Example 208, 2-[(1-acryloylpiperidin-4-yl)oxy]-N-{[(2R)-2-fluoro-1-hydroxycyclohexyl]methyl}-5H-pyrrolo[2,3-b]pyrazine-7-carboxamide] were 6.99 nM and 734 nM.
